Laboratory results from patent US12534465B2, “5H-pyrrolo[3,2-d]pyrimidine-2,4-diamino compounds and antibody conjugates thereof” (SUTRO BIOPHARMA, INC., priority 2019, dated 2026).

How the values were obtained:
Assay type in all cases: cell-based
human TLR7 = target: T1, human TLR7 (Homo sapiens, UniProt Q9NYK1); assay: HEK293-humanTLR7 SEAP reporter assay (Example 8); conditions: HEK293-hTLR7 SEAP reporter cells, 24 hrs
T1 construct: host or cells: HEK293
T1 sequence (Q9NYK1 27-1049): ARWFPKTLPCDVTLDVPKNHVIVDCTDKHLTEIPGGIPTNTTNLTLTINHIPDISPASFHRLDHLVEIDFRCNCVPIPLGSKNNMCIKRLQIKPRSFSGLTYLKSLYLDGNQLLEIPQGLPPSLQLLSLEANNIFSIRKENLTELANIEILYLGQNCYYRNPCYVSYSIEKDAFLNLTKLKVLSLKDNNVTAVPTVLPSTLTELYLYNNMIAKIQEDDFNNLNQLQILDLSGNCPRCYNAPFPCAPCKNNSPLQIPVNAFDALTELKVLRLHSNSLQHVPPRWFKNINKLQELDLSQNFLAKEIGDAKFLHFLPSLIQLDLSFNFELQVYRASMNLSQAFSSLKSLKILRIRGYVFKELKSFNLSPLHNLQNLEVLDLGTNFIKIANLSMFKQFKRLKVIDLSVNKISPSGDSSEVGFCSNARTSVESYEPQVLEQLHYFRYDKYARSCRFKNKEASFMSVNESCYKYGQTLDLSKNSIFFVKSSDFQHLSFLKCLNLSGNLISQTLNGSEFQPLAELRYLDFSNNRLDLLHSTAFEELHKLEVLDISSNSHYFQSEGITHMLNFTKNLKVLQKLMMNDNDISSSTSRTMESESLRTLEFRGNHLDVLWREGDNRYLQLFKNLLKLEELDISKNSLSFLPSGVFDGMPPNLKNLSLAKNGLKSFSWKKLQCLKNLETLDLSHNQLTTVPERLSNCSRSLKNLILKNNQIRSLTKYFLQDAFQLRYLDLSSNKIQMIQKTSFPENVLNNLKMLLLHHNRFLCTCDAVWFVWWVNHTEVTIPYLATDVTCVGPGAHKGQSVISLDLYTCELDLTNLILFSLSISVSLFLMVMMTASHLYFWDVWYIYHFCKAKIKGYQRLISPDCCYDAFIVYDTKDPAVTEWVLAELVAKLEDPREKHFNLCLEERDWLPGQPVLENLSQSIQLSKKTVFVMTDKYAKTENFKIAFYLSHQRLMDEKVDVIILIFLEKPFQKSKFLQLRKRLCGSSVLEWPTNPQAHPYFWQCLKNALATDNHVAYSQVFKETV
Experimental: (§1) In this example, the in vitro activity of compounds to activate human TLR7 (or human TLR8 or mouse TLR7) pathway was evaluated on HEK293 reporter cells transfected with human TLR7 (or human TLR8 or mouse TLR7) and an inducible SEAP (secreted embryonic alkaline phosphatase) reporter gene. The SEAP reporter gene is placed under the control of the IFN-β minimal promoter fused to five NF-κB and AP-1-binding sites. Stimulation with a TLR7 agonist activates NF-κB and AP-1 which induces the production of SEAP. Levels of SEAP were determined by HEK-Blue Detection medium.
(§2) The in vitro activity of compounds on TLR7 (human and mouse) and TLR8 (human only) reporter cell lines was assessed as follows. 5-(2-methoxy-4-(piperazin-1-ylmethyl)benzyl)-N4-pentyl-5H-pyrrolo[3,2-d]pyrimidine-2,4-diamine (Compound 1) is a compound used for comparison and has the structure shown below:
(§3) HEK293-humanTLR7 (hTLR7), HEK293-mouseTLR7 (mTLR7) and HEK293-humanTLR8 (hTLR8) reporter cell lines were purchased from Invivogen and cell lines were maintained in the manufacturer's recommended culture medium with required supplemental antibiotics. On the day of assay, the cells were harvested with Accutase and counted by the Vi-CELL Cell Viability Analyzers. Cells were resuspended in HEK blue detection medium and a total of 10,000 cells were seeded in each well of a 384-well flat bottom plate. Serial dilutions of test compounds (1:4 serial dilution starting from 5 μM) were added into treatment wells and assay plates were cultured at 37° C. in a CO2 incubator for 24 hrs. The plates were then read by spectrophotometry at 640 nm. Data was fitted with non-linear regression analysis, using a log(inhibitor) vs. response-variable slope, 3-parameter fit with GraphPad Prism. There result was reported in Table 1 as EC50 (the midpoint of the curve, or concentration at which 50% of the maximum effect was observed).

mouse TLR7 = target: T2, mouse TLR7 (Mus musculus, UniProt P58681); assay: HEK293-mouseTLR7 SEAP reporter assay (Example 8); conditions: HEK293-mTLR7 SEAP reporter cells, 24 hrs
T2 construct: host or cells: HEK293
T2 sequence (P58681 27-1050): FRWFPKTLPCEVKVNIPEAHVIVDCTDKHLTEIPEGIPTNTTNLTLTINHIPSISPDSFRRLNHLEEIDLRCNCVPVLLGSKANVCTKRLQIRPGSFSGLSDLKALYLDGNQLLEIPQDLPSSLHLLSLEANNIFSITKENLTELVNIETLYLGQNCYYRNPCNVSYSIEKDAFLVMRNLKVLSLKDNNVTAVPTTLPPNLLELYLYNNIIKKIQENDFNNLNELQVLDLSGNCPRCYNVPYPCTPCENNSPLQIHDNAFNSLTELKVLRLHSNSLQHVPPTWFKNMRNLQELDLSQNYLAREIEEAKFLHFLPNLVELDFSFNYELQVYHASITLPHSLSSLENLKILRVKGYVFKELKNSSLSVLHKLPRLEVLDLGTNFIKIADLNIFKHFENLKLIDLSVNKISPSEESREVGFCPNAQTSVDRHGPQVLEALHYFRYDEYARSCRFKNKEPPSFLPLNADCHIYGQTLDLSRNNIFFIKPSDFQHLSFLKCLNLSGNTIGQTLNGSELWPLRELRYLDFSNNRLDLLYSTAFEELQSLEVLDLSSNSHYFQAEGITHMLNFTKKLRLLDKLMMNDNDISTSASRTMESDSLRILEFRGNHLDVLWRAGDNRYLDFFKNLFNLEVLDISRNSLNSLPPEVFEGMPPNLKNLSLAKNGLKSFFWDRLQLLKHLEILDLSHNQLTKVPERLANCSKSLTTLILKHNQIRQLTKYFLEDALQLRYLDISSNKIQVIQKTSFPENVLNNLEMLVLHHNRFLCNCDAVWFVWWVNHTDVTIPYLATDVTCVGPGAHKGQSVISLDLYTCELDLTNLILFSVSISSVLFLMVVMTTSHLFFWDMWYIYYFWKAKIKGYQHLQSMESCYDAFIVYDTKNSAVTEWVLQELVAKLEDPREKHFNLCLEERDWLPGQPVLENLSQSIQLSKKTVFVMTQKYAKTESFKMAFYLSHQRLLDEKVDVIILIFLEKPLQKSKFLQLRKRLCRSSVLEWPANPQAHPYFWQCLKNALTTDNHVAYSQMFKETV
Experimental: as §1, §2, §3

human TLR8 = target: T3, human TLR8 (Homo sapiens, UniProt Q9NR97); assay: HEK293-humanTLR8 SEAP reporter assay (Example 8); conditions: HEK293-hTLR8 SEAP reporter cells, 24 hrs
T3 construct: host or cells: HEK293
T3 sequence (Q9NR97 27-1041): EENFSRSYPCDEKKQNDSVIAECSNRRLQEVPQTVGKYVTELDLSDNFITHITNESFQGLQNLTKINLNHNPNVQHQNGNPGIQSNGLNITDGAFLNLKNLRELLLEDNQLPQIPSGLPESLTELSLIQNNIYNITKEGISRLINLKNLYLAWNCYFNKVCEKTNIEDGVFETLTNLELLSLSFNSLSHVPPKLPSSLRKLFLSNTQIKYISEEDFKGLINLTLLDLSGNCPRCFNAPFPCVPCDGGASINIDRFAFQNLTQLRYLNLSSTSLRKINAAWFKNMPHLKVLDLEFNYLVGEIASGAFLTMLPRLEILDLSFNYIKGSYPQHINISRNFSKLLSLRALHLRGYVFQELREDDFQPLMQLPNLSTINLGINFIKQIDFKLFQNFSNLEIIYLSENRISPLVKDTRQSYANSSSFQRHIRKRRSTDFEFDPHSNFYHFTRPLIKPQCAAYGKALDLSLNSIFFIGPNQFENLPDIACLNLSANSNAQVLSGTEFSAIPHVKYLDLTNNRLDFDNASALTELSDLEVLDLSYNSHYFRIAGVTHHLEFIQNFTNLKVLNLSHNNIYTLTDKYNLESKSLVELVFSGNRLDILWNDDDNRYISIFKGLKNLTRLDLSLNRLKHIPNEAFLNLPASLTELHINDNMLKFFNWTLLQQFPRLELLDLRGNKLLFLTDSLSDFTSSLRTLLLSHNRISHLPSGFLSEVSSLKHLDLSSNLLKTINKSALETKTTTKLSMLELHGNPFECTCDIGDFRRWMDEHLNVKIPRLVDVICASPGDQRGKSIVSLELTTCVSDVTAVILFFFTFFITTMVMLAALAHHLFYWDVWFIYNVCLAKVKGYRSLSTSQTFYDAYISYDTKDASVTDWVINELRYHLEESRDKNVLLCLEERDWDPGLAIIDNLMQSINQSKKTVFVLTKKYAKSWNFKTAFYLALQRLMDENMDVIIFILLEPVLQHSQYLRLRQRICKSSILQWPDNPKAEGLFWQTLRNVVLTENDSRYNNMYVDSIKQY
Experimental: as §1, §2, §3

| EC50 (human TLR7) [nM] | EC50 (mouse TLR7) [nM] | EC50 (human TLR8) [nM] | SMILES |
| --- | --- | --- | --- |
| 0.5 | 2.7 | 374 | CCCCCNc1nc(N)nc2ccn(Cc3ccc(CN4CC(N)C4)cc3OC)c12 [Compound 13, 5-(4-((3-aminoazetidin-1-yl)methyl)-2-methoxybenzyl)-N4-pentyl-5H-pyrrolo[3,2-d]pyrimidine-2,4-diamine] |
| 13.4 | 16.2 | 1140 | CCCCCNc1nc(N)nc2ccn(Cc3ccc(CN4CC5(CNC5)C4)cc3OC)c12 [compound 9] |
| 1010 |  | > 5000 | CNC1CN(Cc2ccc(Cn3ccc4nc(N)nc(NCc5nocc5C)c43)c(OC)c2)C1 [Compound 5] |
| 4.8 | 24.6 | > 5000 | CCCCCNc1nc(N)nc2ccn(Cc3ccc(CN4CC5CCC4CN5)cc3OC)c12 (stereo not shown) [compound 15] |
| > 5000 | > 5000 | > 5000 | CNC1CN(Cc2ccc(Cn3ccc4nc(N)nc(NCc5cc(C)on5)c43)c(OC)c2)C1 [Compound 6, 5-(2-methoxy-4-((3-(methylamino)azetidin-1-yl)methyl)benzyl)-N4-((5-methylisoxazol-3-yl)methyl)-5H-pyrrolo[3,2-d]pyrimidine-2,4-diamine] |
| 92.3 | 222 | > 5000 | CCCCCNc1nc(N)nc2ccn(Cc3ccc(CN4CC(C5CCNCC5)C4)cc3OC)c12 [compound 11] |
| 16.5 | 17.6 | > 5000 | CCCCCNc1nc(N)nc2ccn(Cc3ccc(CN4CC5(CCNCC5)C4)cc3OC)c12 [compound 8] |
| 0.1 | 6.7 | > 5000 | CCCCCNc1nc(N)nc2ccn(Cc3ccc(CN4CC5(C4)CN(C(=O)OC(C)(C)C)CCO5)cc3OC)c12 [Compound 1.7, tert-butyl 2-[[4-[[2-amino-4-(pentylamino)pyrrolo[3,2-d]pyrimidin-5-yl]methyl]-3-methoxy-phenyl]methyl]-5-oxa-2,8-diazaspiro[3.5]nonane-8-carboxylate] |
| 108 | 322 | > 5000 | CCCCCNc1nc(N)nc2ccn(Cc3ccc(CN4CC5CCCC(C4)NC5)cc3OC)c12 (stereo not shown) [compound 14] |
| 48.8 | 112 | > 5000 | CCCCCNc1nc(N)nc2ccn(Cc3ccc(CN4CCC5(CCNCC5)CC4)cc3OC)c12 [compound 7] |
| 370 |  | > 5000 | CCCCCNc1nc(N)nc2ccn(Cc3ccc(CN4CCC(c5nnc6n5CCNC6)CC4)cc3OC)c12 [compound 12] |
